In ChEMBL document CHEMBL5154936, “Scaffold Hopping Strategy to Identify Prostanoid EP4 Receptor Antagonists for Cancer Immunotherapy” (J Med Chem, 2022):
pIC50: −log10 of the molar value. ≈ marks a conversion by molar mass, not a printed value.

Columns and labels:
[1] = Metabolic stability in human liver microsomes assessed as intrinsic clearance; type: ADME, Microsome; conditions: read-out: CLH
[2] = Clearance in BALB/c mouse at 5 mg/kg, po measured upto 24 hrs by LC-MS/MS analysis; type: ADME, organism-based; conditions: in vivo
[3] = Metabolic stability in mouse liver microsomes assessed as intrinsic clearance; type: ADME, Microsome; conditions: read-out: CLH
[4] = molecular target: Voltage-gated inwardly rectifying potassium channel KCNH2 (Homo sapiens, UniProt Q12809); assay: Inhibition of human ERG potassium channel transfected in HEK293 cells by whole-cell patch clamp assay; type: toxicity, cell-based
[5] = Metabolic stability in human liver microsomes assessed as parent compound remaining at 10 uM measured after 60 mins; type: ADME, Microsome; conditions: read-out: Stability
[6] = AUC (0 to infinity) in BALB/c mouse at 1 mg/kg, iv measured upto 24 hrs by LC-MS/MS analysis; type: ADME, organism-based; design: time < 24 hrs, dose 1 mg/kg, route iv; conditions: in vivo
[7] = AUC (0 to infinity) in BALB/c mouse at 5 mg/kg, po measured upto 24 hrs by LC-MS/MS analysis; type: ADME, organism-based; design: dose 5 mg/kg, time < 24 hrs, route po; conditions: in vivo
[8] = Kinetic solubility of compound in simulated intestinal fluid at pH 6.8 measured after 24 hrs by HPLC analysis; type: physicochemical; conditions: read-out: Kinetic_solubility
[9] = Metabolic stability in mouse liver microsomes assessed as half life; type: ADME, Microsome
CYP2D6 = CYP2D6 (Homo sapiens, UniProt P10635); assay: Inhibition of CYP2D6 (unknown origin) at 20 uM; type: ADME
[10] = Clearance in BALB/c mouse at 1 mg/kg, iv measured upto 24 hrs by LC-MS/MS analysis; type: ADME, organism-based; conditions: in vivo
[11] = molecular target: Prostaglandin E2 receptor EP4 subtype (Mus musculus, UniProt P32240); assay: Antagonist activity at mouse EP4 receptor transfected in CHO/Galpha16 cells preincubated for 15 mins followed by PGE2 addition by calcium flux assay; type: functional, cell-based
[12] = Cmax in BALB/c mouse at 5 mg/kg, po measured upto 24 hrs by LC-MS/MS analysis; type: ADME, organism-based; design: dose 5 mg/kg, time < 24 hrs, route po; conditions: in vivo
CYP2E1 = CYP2E1 (Homo sapiens, UniProt P05181); assay: Inhibition of CYP2E1 (unknown origin) at 20 uM; type: ADME
[13] = molecular target: T1, Prostaglandin E2 receptor EP1 subtype (Homo sapiens, UniProt P34995); assay: Antagonist activity at human EP1 receptor transfected in CHO/Galpha16 cells preincubated for 15 mins followed by PGE2 addition by calcium flux assay; type: functional, cell-based
T1 sequence (P34995 whole entry): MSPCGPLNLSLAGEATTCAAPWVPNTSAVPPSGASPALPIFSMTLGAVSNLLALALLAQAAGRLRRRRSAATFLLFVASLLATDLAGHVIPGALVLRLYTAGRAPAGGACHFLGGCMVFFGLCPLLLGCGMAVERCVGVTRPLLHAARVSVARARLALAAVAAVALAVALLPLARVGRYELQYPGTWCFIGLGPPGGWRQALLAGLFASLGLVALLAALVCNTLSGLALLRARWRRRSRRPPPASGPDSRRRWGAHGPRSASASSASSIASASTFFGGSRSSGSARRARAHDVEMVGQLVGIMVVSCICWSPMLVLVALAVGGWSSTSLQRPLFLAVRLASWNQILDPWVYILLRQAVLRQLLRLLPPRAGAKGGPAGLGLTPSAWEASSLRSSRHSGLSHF

[14] = Volume of distribution at steady state in BALB/c mouse at 1 mg/kg, iv measured upto 24 hrs by LC-MS/MS analysis; type: ADME, organism-based; conditions: in vivo, read-out: Vdss
[15] = AUC (0 to 24 hrs) in BALB/c mouse at 1 mg/kg, iv measured upto 24 hrs by LC-MS/MS analysis; type: ADME, organism-based; design: dose 1 mg/kg, time < 24 hrs, route iv; conditions: in vivo
CYP1A2 = molecular target: T2, CYP1A2 (Homo sapiens, UniProt P05177); assay: Inhibition of CYP1A2 (unknown origin) at 20 uM; type: ADME
T2 sequence (P05177 whole entry): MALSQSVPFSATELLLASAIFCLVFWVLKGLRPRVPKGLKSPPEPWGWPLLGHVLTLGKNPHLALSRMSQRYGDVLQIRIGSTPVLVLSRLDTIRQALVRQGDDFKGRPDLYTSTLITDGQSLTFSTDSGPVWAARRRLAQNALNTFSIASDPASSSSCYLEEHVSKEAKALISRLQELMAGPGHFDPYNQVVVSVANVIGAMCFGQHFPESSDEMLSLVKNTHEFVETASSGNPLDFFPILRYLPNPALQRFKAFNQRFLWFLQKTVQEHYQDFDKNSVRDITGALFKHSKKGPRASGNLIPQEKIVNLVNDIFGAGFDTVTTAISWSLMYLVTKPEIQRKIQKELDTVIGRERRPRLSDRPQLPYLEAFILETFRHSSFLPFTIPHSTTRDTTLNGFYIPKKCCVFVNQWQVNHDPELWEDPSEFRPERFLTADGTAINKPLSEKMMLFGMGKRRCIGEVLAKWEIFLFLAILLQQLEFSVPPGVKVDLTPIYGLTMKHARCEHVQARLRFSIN

[16] = molecular target: Prostaglandin E2 receptor EP2 subtype (Homo sapiens, UniProt P43116); assay: Antagonist activity at human EP2 receptor transfected in CHO/Galpha16 cells preincubated for 15 mins followed by PGE2 addition by calcium flux assay; type: functional, cell-based
[17] = Kinetic solubility of compound in simulated gastric fluid at pH 1.2 measured after 24 hrs by HPLC analysis; type: physicochemical; conditions: read-out: Kinetic_solubility
[18] = molecular target: T3, Prostaglandin E2 receptor EP3 subtype (Homo sapiens, UniProt P43115); assay: Antagonist activity at human EP3 receptor transfected in CHO/Galpha16 cells preincubated for 15 mins followed by PGE2 addition by calcium flux assay; type: functional, cell-based
T3 sequence (P43115 whole entry): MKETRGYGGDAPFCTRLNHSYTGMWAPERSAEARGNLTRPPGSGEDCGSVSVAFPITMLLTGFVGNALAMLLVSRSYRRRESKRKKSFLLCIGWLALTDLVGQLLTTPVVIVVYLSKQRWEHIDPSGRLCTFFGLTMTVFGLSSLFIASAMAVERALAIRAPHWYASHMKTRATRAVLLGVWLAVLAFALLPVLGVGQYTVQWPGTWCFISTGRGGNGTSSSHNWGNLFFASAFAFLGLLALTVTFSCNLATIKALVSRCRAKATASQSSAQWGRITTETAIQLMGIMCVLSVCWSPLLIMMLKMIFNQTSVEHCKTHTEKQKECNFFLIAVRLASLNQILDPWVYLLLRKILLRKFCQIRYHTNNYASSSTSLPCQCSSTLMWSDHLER

Chain of Prostaglandin E2 receptor EP4 subtype (P32240 whole entry): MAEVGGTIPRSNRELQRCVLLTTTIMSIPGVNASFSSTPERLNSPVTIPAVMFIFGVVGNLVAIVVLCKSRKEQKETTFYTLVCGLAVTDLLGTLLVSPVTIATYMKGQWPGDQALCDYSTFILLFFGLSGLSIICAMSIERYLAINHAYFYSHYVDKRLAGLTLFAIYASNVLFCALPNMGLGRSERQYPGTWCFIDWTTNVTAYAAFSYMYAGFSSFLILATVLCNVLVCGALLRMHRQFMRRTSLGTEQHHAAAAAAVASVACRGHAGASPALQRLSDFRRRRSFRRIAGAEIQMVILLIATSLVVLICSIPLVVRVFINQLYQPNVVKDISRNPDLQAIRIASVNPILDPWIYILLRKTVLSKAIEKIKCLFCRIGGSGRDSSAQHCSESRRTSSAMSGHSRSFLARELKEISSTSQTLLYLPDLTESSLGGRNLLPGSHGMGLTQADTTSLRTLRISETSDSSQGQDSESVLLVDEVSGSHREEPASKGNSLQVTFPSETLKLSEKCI
Chain of Prostaglandin E2 receptor EP2 subtype (P43116 whole entry): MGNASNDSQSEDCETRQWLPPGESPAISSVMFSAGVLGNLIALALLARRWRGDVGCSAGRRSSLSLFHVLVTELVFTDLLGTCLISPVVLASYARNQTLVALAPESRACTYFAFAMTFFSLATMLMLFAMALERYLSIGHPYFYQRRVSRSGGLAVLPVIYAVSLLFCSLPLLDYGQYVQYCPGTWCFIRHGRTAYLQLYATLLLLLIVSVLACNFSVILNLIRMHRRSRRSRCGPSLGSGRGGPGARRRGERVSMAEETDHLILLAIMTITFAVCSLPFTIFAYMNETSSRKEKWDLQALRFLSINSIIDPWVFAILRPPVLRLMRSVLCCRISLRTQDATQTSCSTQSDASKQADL
Chain of CYP2E1 (P05181 whole entry): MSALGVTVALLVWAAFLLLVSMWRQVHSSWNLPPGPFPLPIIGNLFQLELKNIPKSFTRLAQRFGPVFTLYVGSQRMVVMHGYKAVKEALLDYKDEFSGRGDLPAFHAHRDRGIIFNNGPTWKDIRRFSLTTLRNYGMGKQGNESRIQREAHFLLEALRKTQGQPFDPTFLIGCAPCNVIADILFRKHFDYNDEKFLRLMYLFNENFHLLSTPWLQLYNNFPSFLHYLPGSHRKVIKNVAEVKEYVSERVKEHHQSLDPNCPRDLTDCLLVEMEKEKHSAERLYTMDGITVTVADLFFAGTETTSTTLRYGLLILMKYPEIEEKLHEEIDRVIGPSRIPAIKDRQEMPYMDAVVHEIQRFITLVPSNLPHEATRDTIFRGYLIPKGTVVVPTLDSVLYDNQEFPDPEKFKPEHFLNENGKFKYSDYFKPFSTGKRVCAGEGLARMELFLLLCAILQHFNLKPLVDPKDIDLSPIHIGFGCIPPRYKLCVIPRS
Chain of CYP2D6 (P10635 whole entry): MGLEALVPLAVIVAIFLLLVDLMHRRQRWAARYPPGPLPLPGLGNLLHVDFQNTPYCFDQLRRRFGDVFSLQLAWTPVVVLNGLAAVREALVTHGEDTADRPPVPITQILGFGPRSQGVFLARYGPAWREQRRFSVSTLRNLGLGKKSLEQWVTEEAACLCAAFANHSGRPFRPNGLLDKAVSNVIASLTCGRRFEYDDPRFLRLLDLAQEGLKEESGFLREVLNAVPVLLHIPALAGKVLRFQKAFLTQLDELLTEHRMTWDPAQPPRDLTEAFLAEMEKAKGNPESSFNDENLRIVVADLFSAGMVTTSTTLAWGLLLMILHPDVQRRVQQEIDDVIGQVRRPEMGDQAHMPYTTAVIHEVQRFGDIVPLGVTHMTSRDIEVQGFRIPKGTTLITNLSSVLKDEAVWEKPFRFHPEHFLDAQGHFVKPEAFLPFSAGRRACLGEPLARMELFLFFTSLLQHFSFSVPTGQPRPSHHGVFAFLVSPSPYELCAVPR
Chain of Voltage-gated inwardly rectifying potassium channel KCNH2 (Q12809 whole entry): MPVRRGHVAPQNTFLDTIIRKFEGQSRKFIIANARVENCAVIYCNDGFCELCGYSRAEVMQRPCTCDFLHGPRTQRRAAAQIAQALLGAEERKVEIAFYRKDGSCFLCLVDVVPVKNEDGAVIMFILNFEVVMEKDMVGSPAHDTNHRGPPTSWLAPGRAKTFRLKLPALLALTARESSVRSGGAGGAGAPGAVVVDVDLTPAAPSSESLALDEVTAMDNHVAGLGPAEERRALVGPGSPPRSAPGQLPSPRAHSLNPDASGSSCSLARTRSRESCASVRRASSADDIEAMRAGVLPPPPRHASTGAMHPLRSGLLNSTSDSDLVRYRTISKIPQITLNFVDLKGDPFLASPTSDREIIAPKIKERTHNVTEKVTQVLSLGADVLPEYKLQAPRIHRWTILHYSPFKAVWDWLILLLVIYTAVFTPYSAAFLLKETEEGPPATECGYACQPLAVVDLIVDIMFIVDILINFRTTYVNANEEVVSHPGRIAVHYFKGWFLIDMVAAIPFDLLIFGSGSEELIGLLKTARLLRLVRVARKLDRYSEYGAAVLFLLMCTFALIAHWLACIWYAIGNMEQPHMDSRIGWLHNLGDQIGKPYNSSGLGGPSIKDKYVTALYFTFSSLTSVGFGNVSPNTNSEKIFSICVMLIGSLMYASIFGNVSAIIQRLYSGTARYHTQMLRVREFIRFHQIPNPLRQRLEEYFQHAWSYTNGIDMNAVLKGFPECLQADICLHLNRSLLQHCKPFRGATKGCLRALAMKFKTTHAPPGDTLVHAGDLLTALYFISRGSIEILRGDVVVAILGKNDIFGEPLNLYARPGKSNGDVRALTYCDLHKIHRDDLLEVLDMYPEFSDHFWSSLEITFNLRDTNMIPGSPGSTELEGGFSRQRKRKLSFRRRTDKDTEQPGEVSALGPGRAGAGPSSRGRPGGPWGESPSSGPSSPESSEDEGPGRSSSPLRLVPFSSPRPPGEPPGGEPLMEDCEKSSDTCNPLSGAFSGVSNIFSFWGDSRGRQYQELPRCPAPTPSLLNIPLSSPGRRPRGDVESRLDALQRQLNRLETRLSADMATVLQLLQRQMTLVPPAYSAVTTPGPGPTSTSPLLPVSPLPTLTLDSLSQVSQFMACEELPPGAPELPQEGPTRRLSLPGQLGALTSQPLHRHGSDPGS

Row | SMILES | microsomal CLint [1] [µL/min/mg] | CL/F [2] [mL/min/kg] | microsomal CLint [3] [µL/min/mg] | pIC50 [4] | remaining at 1 h, 10 µM [5] [%] | AUC(0-inf) [6] [ng·h/mL] | AUC(0-inf) [7] [ng·h/mL] | solubility kinetic at 24 h [8] [µM] | half-life [9] [h] | inhibition at 20 µM (CYP2D6) [%] | clearance [10] [mL/min/kg] | pIC50 [11] | Cmax [12] [ng/mL] | inhibition at 20 µM (CYP2E1) [%] | pIC50 [13] | Vd [14] [L/kg] | AUC(0-t) at 24 h [15] [ng·h/mL] | inhibition at 20 µM (CYP1A2) [%] | pIC50 [16] | solubility kinetic at 24 h [17] [µM] | also measured
1 | O=C(O)c1ccc(CNC(=O)c2c(Cc3ccc(F)cc3)sc3c2CCOC3)cc1 | < 9.6 | 38.5 | < 9.6 | < 4.52 | 89.8 | 735 | 2220 | > 200 | > 2.42 | 65 | 22.7 | 7.61 | 982 | 31 | < 5.00 | 6.14 | 684 | 46 | < 5.00 | 2.97 (≈ 1.26 µg/mL) | pIC50 [18]: < 5.00
2 | C[C@H](NC(=O)c1c(Cc2cccc(C(F)(F)F)c2)sc2c1CCOC2)c1ccc(C(=O)O)cc1 | < 9.6 | 49.9 | < 9.6 | < 4.52 | 84.6 | 683 | 1690 | 182 (≈ 89.1 µg/mL) | > 2.42 | 72 | 24.6 | 8.55 | 664 | 23 | < 5.00 | 7.39 | 642 | 60 | < 5.00 | < 1 | pIC50 [18]: < 5.00
